According to US6890951B2, “Treatment of addiction and addiction-related behavior” (Brookhaven Science Associates LLC, priority 1998, dated 2005):
“Also recorded” adds a separate entry of the source.

How the values were obtained:
male F344 rats = details: cited from earlier work
rhesus monkeys = details: cited from earlier work
male Sprague-Dawley rats [1] = experiment: Food-induced conditioned place preference; assay type: in vivo
From the text: In order to test food-induced CPP in rodents, four groups of rats were allowed access to food ad libitum during the entire 12 session of CPP procedure. The 12 session CPP procedure was exactly the same as the procedure used in the cocaine induced CPP studies except the appetitive substance was food rather than cocaine. […] The animals in all four groups were habituated to Froot Loops, a fruit-flavored breakfast cereal that is very appealing to laboratory rats, in the appropriate chamber in the test room during four habituating sessions. […] The amount of time spent in the paired and unpaired chambers was recorded using an automated device.
In this example the procedure outlined in Section 3 of Materials and Methods was followed.

freely moving rats = experiment: Cocaine-induced stereotypy after a sensitizing regimen of cocaine; assay type: in vivo
Protocol: The phenomenon of sensitization is observed with virtually all drugs of addiction. Sensitization is believed to play a role in the etiology of addiction.
Animals received 15 mg/kg i.p. of cocaine and stereotypy was determined in standard locomotor cages. For 6 consecutive days, animals received 15 mg/kg i.p. of cocaine once a day in their home cages. Eight days later, animals were rechallenged with 15 mg/kg i.p. of cocaine and stereotypy was determined. A five point rating scale was used to assess stereotypy and the rater was blind to the treatment received by each animal.

Sprague-Dawley rats = experiment: Gross locomotor activity during microdialysis (infrared motion sensor); details: GVG, during the 2.5 hour pretreatment interval
From the text: In parallel to the quantitative estimates of dopamine concentration, the locomotor response of these animals to stimulant administration was simultaneously quantified using an infrared motion sensor. This infrared optical proximity detector monitored movement of the gimbaled arm, an integral component of the freely moving system. The digital output of the detector was interfaced with an IBM personal computer and programmed to count both positive and negative arm deflections. […] Locomotor activity was then expressed as the number of deflections per sample interval.

male Sprague-Dawley rats [2] = experiment: Locomotor activity (Photobeam Activity System); assay type: in vivo; details: GVG 150 mg/kg or 300 mg/kg i.p., 2.5 hours before
Protocol: Animals were prehandled for 5 minutes each day for one week prior to the experiment to reduce handling stress. […] The animals were transported to the testing area one hour before each experiment. […] The locomotor cages themselves are 41.3×41.3×30.5 cm clear acrylic cages. The electronic system (Photobeam Activity system, San Diego Instruments, San Diego, Calif.) used to monitor locomotor activity consists of 16 infrared beams projecting across the cages from left to right and 16 beams from front to back. All the infrared beams are approximately 0.39 cm from the floor.
In this example the procedures outlined in Section 4 and 5 of Materials and Methods were followed.

NAc DA = experiment: Microdialysis: cocaine/heroin (speedball) induced increases in NAc DA; assay type: in vivo, rats
Protocol: In vivo microdialysis studies were performed using adult male Sprague-Dawley rats (Taconic Farms) as detailed previously (Morgan and Dewey, 1998). Cocaine, a dopamine reuptake inhibitor, (n=6-8) was administered (i.p.) at a dose of 20 mg/kg while heroin, an indirect dopamine releaser, (n=6-8) was administered (i.p.) at a dose of 0.5 mg/kg. In studies designed to investigate the synergistic effects of a cocaine/heroin combination (n=6-8), both drugs were administered at the identical dose used in the single drug studies. Alone cocaine produced a marked elevation in extracellular DA of approximately 380% above baseline values, 60 minutes following administration. DA returned to baseline within 120 minutes. In contrast, heroin increased NAc DA by only 70%, 60 minutes following administration, returning to baseline within 140 minutes. However, when combined, the two drugs produced an increase in NAc DA of approximately 1000%, 180 minutes following administration that had not returned to baseline values by 200 minutes after reaching peak values (FIG. 9).

[3] = tested on: extracellular DA in the NACC; experiment: In vivo microdialysis: nicotine-induced increases in extracellular NACC DA; set-up: species or system rats
From the text: All animals were used under an IACUC-approved protocol and with strict adherence to the NIH guidelines. Adult male Sprague-Dawley rats (200-300 g, Taconic Farms), housed in the animals care facility under 12:12 light/dark conditions, were placed into 6 groups (n=5-9), anesthetized and siliconized guide cannulae were stereotactically implanted into the right NACC (2.0 mm anterior and 1.0 mm lateral to bregms, and 7.0 mm ventral to the cortical surface) at least 4 days prior to study. […] Animals were placed in bowls, and probes were inserted and flushed with ACSF overnight. On the day of the study, a minimum of three samples were injected to determine baseline stability. Samples were collected for 20 min. and injected on-line (CMA/160, BAS). The average Dopamine concentration of these three stable samples was defined as control (100%), and all subsequent treatment values were transformed to a percentage of that control. […] The high performance liquid chromatography (HPLC) system consists of a BAS reverse-phase column (3.0 μC-18), a BAS LC-4C electrochemical transducer with a dual/glassy carbon electrode set at 650 mV, a computer that analyzes data on-line using a commercial software package (Chromograph Bioanalytical Systems), and a dual pen chart recorder. The mobile phase (flow rate 1.0 ml/min) consisted of 7.0% methanol, 50 mM sodium phosphate monobasic, 1.0 mM sodium octyl sulfate, and 0.1 mm EDNA, pH 4.0. […] Upon completion of the study, animals were decapitated and frozen sections were obtained for probe placement verification.
The open circles are control animals.
In all studies, animals were placed in the microdialysis bowls the night before the experiment and artificial cerebrospinal fluid (ACSF) was perfused through the microdialysis probes at a flow rate of 2.0 μl/min. At the end of each study, animals were sacrificed and their brains were removed and sectioned for probe placement verification.

Q: With `C=CC(N)CCC(=O)O` (racemic) [GVG, 4-amino-5-hexanoic acid] as the compound, how does the “decrease in brain stimulation reward thresholds produced by 2.5 and 5 mg/kg i.p. cocaine” value (male F344 rats; GVG 400 mg/kg) read?
A: significantly antagonized

Q: What about the “brain stimulation reward thresholds” value (male F344 rats; GVG alone) of the same compound?
A: dose-dependent increase

Q: What about the “withdrawal signs or symptoms” value (rhesus monkeys; animals withdrawn from chronic GVG treatment) of the same compound?
A: do not exhibit withdrawal signs or symptoms

Q: What about the “self-administration of GVG” value (rhesus monkeys; rhesus monkeys) of the same compound?
A: not self-administered

Q: What about the “Time spent in chambers, Paired” value (male Sprague-Dawley rats [1]; GVG 150 mg/kg ip / Food) of the same compound?
A: 9.4 ± 0.4 min

Q: What about the “Time spent in chambers, Unpaired” value (male Sprague-Dawley rats [1]; GVG 150 mg/kg ip / Food) of the same compound?
A: 5.6 ± 0.5 min

Q: And the “Time spent in chambers, Paired” value (male Sprague-Dawley rats [1]; GVG 300 mg/kg ip / Food)?
A: 9.0 ± 0.5 min

Q: What about the “Time spent in chambers, Unpaired” value (male Sprague-Dawley rats [1]; GVG 300 mg/kg ip / Food) of the same compound?
A: 6.0 ± 0.5 min

Q: What about the “CPP response to food” value (male Sprague-Dawley rats [1]; GVG 150 and 300 mg/kg) of the same compound?
A: did not alter the CPP response to food

Q: And the “Stereotypies on Day 15” value (freely moving rats; 150 mg/kg i.p. of GVG 2 hrs. before, cocaine 15 mg/kg i.p. rechallenge after sensitizing regimen)?
A: 2.3 ± 0.6

Q: And the “expression of cocaine-induced sensitization” value (freely moving rats; GVG 150 mg/kg i.p. 2.5 hours prior to the cocaine challenge)?
A: abolished the expression of cocaine-induced sensitization

Q: What about the “Stereotypy score on Day 1” value (freely moving rats; cocaine 15 mg/kg i.p., baseline of the group later given GVG (no GVG on Day 1)) of the same compound?
A: 2.9 ± 0.4

Q: And the gross locomotor activity (Sprague-Dawley rats)?
A: did not alter gross locomotor activity

Q: And the “locomotor activity compared to saline pretreated controls” value (male Sprague-Dawley rats [2])?
A: did not alter locomotor activity

Q: And the “temporal aspects of the response to cocaine/heroin” value (NAc DA; GVG 300 mg/kg i.p.)?
A: did not effect the temporal aspects of the response

Q: And the “increase in NAc DA after cocaine/heroin challenge” value (NAc DA; GVG 300 mg/kg i.p. 2.5 hours prior to challenge, 180 minutes following challenge)?
A: approximately 500%

Q: What about the “synergistic effects of the combined drug challenge (absolute magnitude)” value (NAc DA; GVG 300 mg/kg i.p. 2.5 hours prior to cocaine/heroin) of the same compound?
A: completely abolished the synergistic effects

Q: And the “basal DA levels prior to nicotine administration” value ([3]; GVG 75 mg/kg)?
A: no effect on basal DA levels

Q: And the “effect on nicotine-induced increases in DA” value ([3]; GVG 75 mg/kg i.p. 2.5 hours before nicotine 0.4 mg/kg)?
A: no effect

Q: What about the “effect on nicotine-induced increases in DA” value ([3]; GVG 100 mg/kg i.p. 2.5 hours before nicotine 0.4 mg/kg) of the same compound?
A: completely abolished; also recorded: completely blocked

Q: And the “effect on nicotine-induced increases in DA” value ([3]; GVG 100 mg/kg i.p. 2.5 hours before nicotine 0.4 mg/kg, listed as vigabatrin)?
A: completely blocked

Q: What about the “effect on nicotine-induced increases in DA” value ([3]; GVG 150 mg/kg i.p. 2.5 hours before nicotine) of the same compound?
A: blocks; also recorded: completely abolished

Q: And the “basal DA levels prior to nicotine administration” value ([3]; GVG 90, 100 or 150 mg/kg)?
A: lowered basal DA levels

Q: What about the inhibition at 90 mg/kg ([3]; Rattus norvegicus, ip, GVG 90 mg/kg i.p. 2.5 hours before nicotine 0.4 mg/kg) of the same compound?
A: ~50%

Q: What about the “effect on nicotine-induced increases in extracellular DA” value ([3]; chronically nicotine treated, GVG 100 mg/kg 2.5 hours prior to nicotine) of the same compound?
A: completely abolished

Q: What about the “nicotine-induced increase of extracellular DA above baseline” value ([3]; chronically nicotine treated, GVG 100 mg/kg 12 hours prior to challenge) of the same compound?
A: approximately 25%
